Read-outs that look alike come from different tables or passages of the source.

Holding throughout (type): cell-based
The subject of assay [1] is MKN1 gastric cancer cells. The experiment in a line: antitumor activity, sulforhodamine B cell growth assay, MKN1. How it is done: (§1) The THIQ compound containing a macrocyclic structure of the present invention was administered to various cancer cell lines, and the antitumor activity (Go value) was observed. Specifically, verification was performed according to the literature (Yamori, T.; Matsunaga, A.; Sato, S.; Yamazaki, K.; Komi, A.; Ishizu, K. et al. Cancer Res. 1999, 59, 4042) by the following procedure.
(§2) Cells were plated at an appropriate density in a 96-well plate in RPMI 1640 together with 5% fetal bovine serum, and adhered overnight. The cells were exposed to a drug for 48 hours. Then, according to the sulforhodamine B assay described by Skehan et al (Skehan P., Storeng R., Scudiero D., Monks A., McMahon J., Vistica D., Warren J. T., Bokesch H., Kenney S., Boyd M. R. J Natl. Cancer Inst, 1990, 82, 1107-1112), the cell growth rate was measured. The absorbance of the control well (C) and the test well (T) was measured at 525 nm. In addition, the time at which the drug was added was set as time 0, and the absorbance for the test well (T0) was measured. Using these measured values, the cell growth inhibitory effect (% growth=PG) was calculated by the following formula at each concentration of the drug.
(§3) (T<T0): PG=100×[(T−T0)/T]
(§4) The PG values determined above for each cell line were plotted against the concentration (logarithm) on a semi-logarithmic graph, and summarized for each visceral cancer. Concentrations at which the dose-response curve of each cell line crossed the horizontal line of PG=50%, 0%, or −50% were calculated. These concentrations were defined as Log GI50, Log TGI, and Log LC50. Actually, using two data points of the drug concentration before and after crossing each horizontal line, the drug concentration (logarithmic value) at the intersection of the straight line connecting the two points and the horizontal line for each PG was calculated.

Assay [2] deals with RXF-631L kidney cancer cells. As to the kind of experiment: antitumor activity, sulforhodamine B cell growth assay, RXF-631L. The protocol:
as §1, §2, §3, §4

For assay [3], the system named is OVCAR-8 cancer cells. As to the kind of experiment: antitumor activity, sulforhodamine B cell growth assay, OVCAR-8. How it is done:
as §1, §2, §3, §4

The subject of assay [4] is BSY-1 breast cancer cells. As to the kind of experiment: antitumor activity, sulforhodamine B cell growth assay, BSY-1. The protocol:
as §1, §2, §3, §4

Assay [5] concerns OVCAR-3 cancer cells. The experiment in a line: antitumor activity, sulforhodamine B cell growth assay, OVCAR-3. How it is done:
as §1, §2, §3, §4

The test system of assay [6] is NCI-H460 lung cancer cells. As to the kind of experiment: antitumor activity, sulforhodamine B cell growth assay, NCI-H460. How it is done:
as §1, §2, §3, §4

Assay [7] deals with St-4 gastric cancer cells. As to the kind of experiment: antitumor activity, sulforhodamine B cell growth assay, St-4. How it is done: as §1, §2, §3, §4
The test system of assay [8] is KM-12 colorectal cancer cells. The experiment in a line: antitumor activity, sulforhodamine B cell growth assay, KM-12. How it is done: as §1, §2, §3, §4
For assay [9], the system named is various cancer cell lines. The experiment in a line: Verification of antitumor activity, whole panel of cancer cell lines. The conditions noted are these: in words, compared with Cyanosafracin B. How it is done:
as §1, §2, §3, §4

The subject of assay [10] is HCC2998 colorectal cancer cells. As to the kind of experiment: antitumor activity, sulforhodamine B cell growth assay, HCC2998. How it is done: as §1, §2, §3, §4
In assay [11] the test system is MKN-B gastric cancer cells. As to the kind of experiment: antitumor activity, sulforhodamine B cell growth assay, MKN-B. The protocol:
as §1, §2, §3, §4

The subject of assay [12] is SNB-78 central nervous system cancer cells. The experiment in a line: antitumor activity, sulforhodamine B cell growth assay, SNB-78. How it is done:
as §1, §2, §3, §4

The test system of assay [13] is DMS114 lung cancer cells. The experiment in a line: antitumor activity, sulforhodamine B cell growth assay, DMS114. How it is done:
as §1, §2, §3, §4

Assay [14] has as its system MDA-MB-231 breast cancer cells. The experiment in a line: antitumor activity, sulforhodamine B cell growth assay, MDA-MB-231. The protocol: as §1, §2, §3, §4
For assay [15], the system named is NCI-H226 lung cancer cells. The experiment in a line: antitumor activity, sulforhodamine B cell growth assay, NCI-H226. How it is done:
as §1, §2, §3, §4

Assay [16] deals with OVCAR-5 cervical cancer cells. The experiment in a line: antitumor activity, sulforhodamine B cell growth assay, OVCAR-5. The protocol:
as §1, §2, §3, §4

For assay [17], the system named is SF-295 central nervous system cancer cells. The experiment in a line: antitumor activity, sulforhodamine B cell growth assay, SF-295. The protocol: as §1, §2, §3, §4
In assay [18] the test system is A549 lung cancer cells. As to the kind of experiment: antitumor activity, sulforhodamine B cell growth assay, A549. How it is done: as §1, §2, §3, §4
Assay [19] has as its system SNB-75 central nervous system cancer cells. The experiment in a line: antitumor activity, sulforhodamine B cell growth assay, SNB-75. The protocol: as §1, §2, §3, §4
Assay [20] concerns HBC-4 breast cancer cells. The experiment in a line: antitumor activity, sulforhodamine B cell growth assay, HBC-4. The protocol: as §1, §2, §3, §4
Assay [21] has as its system MCF-7 breast cancer cells. As to the kind of experiment: antitumor activity, sulforhodamine B cell growth assay, MCF-7. How it is done: as §1, §2, §3, §4
In assay [22] the test system is HCT-116 colorectal cancer cells. The experiment in a line: antitumor activity, sulforhodamine B cell growth assay, HCT-116. How it is done: as §1, §2, §3, §4

Regarding `COc1c(C)cc2c(c1O)C1C3Cc4c5c(C)c6c(c4C(CNC(=O)C(C)NC(=O)OCC4C=C(CO5)CC5C(=O)N(c7ccccc7)C(=O)C45)N3C(C#N)C(C2)N1C)OCO6` (stereo not shown) [Compound 18], the GI50 in assay [1] (MKN1, drug exposure 48 hours, read-out: GI50 value: 50% growth inhibitory concentration) is 50 nM; in [2] (RXF-631L, drug exposure 48 hours, read-out: GI50 value: 50% growth inhibitory concentration) it was 310 nM; in assay [3] (OVCAR-8, drug exposure 48 hours, read-out: GI50 value: 50% growth inhibitory concentration), 130 nM; in [4] (BSY-1, drug exposure 48 hours, read-out: GI50 value: 50% growth inhibitory concentration), 19 nM; in assay [5] (OVCAR-3, drug exposure 48 hours, read-out: GI50 value: 50% growth inhibitory concentration), 43 nM; in [6] (NCI-H460, drug exposure 48 hours, read-out: GI50 value: 50% growth inhibitory concentration) it was 260 nM. In addition, the GI50 in [7] (St-4 (SI-4 in Tables 2-11), drug exposure 48 hours, read-out: GI50 value: 50% growth inhibitory concentration) came to 300 nM; in [8] (KM-12, drug exposure 48 hours, read-out: GI50 value: 50% growth inhibitory concentration), 100 nM; in assay [10] (HCC2998, drug exposure 48 hours, read-out: GI50 value: 50% growth inhibitory concentration), 95 nM; in assay [11] (MKN-B, drug exposure 48 hours, read-out: GI50 value: 50% growth inhibitory concentration) it was 160 nM; in assay [12] (SNB-78, drug exposure 48 hours, read-out: GI50 value: 50% growth inhibitory concentration), 40 nM; in assay [13] (DMS114, drug exposure 48 hours, read-out: GI50 value: 50% growth inhibitory concentration), 12 nM. Moreover, the GI50 in [14] (MDA-MB-231, drug exposure 48 hours, read-out: GI50 value: 50% growth inhibitory concentration) amounted to 41 nM; in [15] (NCI-H226, drug exposure 48 hours, read-out: GI50 value: 50% growth inhibitory concentration) it was 280 nM; in assay [16] (OVCAR-5, drug exposure 48 hours, read-out: GI50 value: 50% growth inhibitory concentration), 280 nM; in [17] (SF-295, drug exposure 48 hours, read-out: GI50 value: 50% growth inhibitory concentration), 300 nM; in [18] (A549, drug exposure 48 hours, read-out: GI50 value: 50% growth inhibitory concentration) it was 540 nM; in assay [19] (SNB-75, drug exposure 48 hours, read-out: GI50 value: 50% growth inhibitory concentration), 50 nM. For the same molecule, the GI50 in assay [20] (HBC-4, drug exposure 48 hours, read-out: GI50 value: 50% growth inhibitory concentration) was 30 nM; in assay [21] (MCF-7, drug exposure 48 hours, read-out: GI50 value: 50% growth inhibitory concentration), 22 nM; in [22] (HCT-116, drug exposure 48 hours, read-out: GI50 value: 50% growth inhibitory concentration) it was 74 nM. The antitumor activity result in assay [9] is “better antitumor activity than Cyanosafracin B”.
In the case of `CC1=C(C)C(=O)C2=C(CC3(C)[C@H]4c5c(cc(C)c(C)c5C)C[C@@](C)(C(C)N3[C@H]2CNC(=O)C(C)C)N4C)C1=O` (stereo partly shown) [drawing 160], the GI50 in [1] (Homo sapiens, MKN-1, MKN1 gastric cancer cells, read-out: antitumor activity GI50 value: 50% growth inhibitory concentration) stood at 52 nM; in assay [2] (RXF-631L kidney cancer cells, read-out: antitumor activity GI50 value: 50% growth inhibitory concentration) it was 400 nM; in [3] (Homo sapiens, OVCAR-8 cervical cancer cells, read-out: antitumor activity GI50 value: 50% growth inhibitory concentration), 290 nM; in [4] (BSY-1 breast cancer cells, read-out: antitumor activity GI50 value: 50% growth inhibitory concentration), 34 nM; in assay [5] (Homo sapiens, OVCAR-3 cervical cancer cells, read-out: antitumor activity GI50 value: 50% growth inhibitory concentration), 130 nM; in [6] (Homo sapiens, NCI-H460, NCl--H460 lung cancer cells, read-out: antitumor activity GI50 value: 50% growth inhibitory concentration), 400 nM. Moreover, the GI50 was found to be 430 nM in assay [7] (SI-4 gastric cancer cells, read-out: antitumor activity GI50 value: 50% growth inhibitory concentration); 530 nM in [8] (Homo sapiens, KM12, KM-12 colorectal cancer cells, read-out: antitumor activity GI50 value: 50% growth inhibitory concentration); 350 nM in assay [10] (Homo sapiens, HCC 2998, HCC2998 colorectal cancer cells, read-out: antitumor activity GI50 value: 50% growth inhibitory concentration); 170 nM in assay [11] (MKN-B gastric cancer cells, read-out: antitumor activity GI50 value: 50% growth inhibitory concentration); 63 nM in [12] (Homo sapiens, SNB-78 central nervous system cancer cells, read-out: antitumor activity GI50 value: 50% growth inhibitory concentration); 35 nM in [13] (Homo sapiens, DMS-114, DMS114 lung cancer cells, read-out: antitumor activity GI50 value: 50% growth inhibitory concentration). Also, the GI50 in assay [14] (Homo sapiens, MDA-MB-231 breast cancer cells, read-out: antitumor activity GI50 value: 50% growth inhibitory concentration) amounted to 130 nM; in [15] (Homo sapiens, NCI-H226, NCl-H226 lung cancer cells, read-out: antitumor activity GI50 value: 50% growth inhibitory concentration), 310 nM; in assay [16] (Homo sapiens, OVCAR-5 cervical cancer cells, read-out: antitumor activity GI50 value: 50% growth inhibitory concentration), 390 nM; in [17] (Homo sapiens, SF-295 central nervous system cancer cells, read-out: antitumor activity GI50 value: 50% growth inhibitory concentration) it was 500 nM; in assay [18] (Homo sapiens, A549 lung cancer cells, read-out: antitumor activity GI50 value: 50% growth inhibitory concentration), 1600 nM; in assay [19] (Homo sapiens, SNB-75 central nervous system cancer cells, read-out: antitumor activity GI50 value: 50% growth inhibitory concentration) it was 150 nM. In addition, the GI50 in [20] (HBC4, HBC-4 breast cancer cells, read-out: antitumor activity GI50 value: 50% growth inhibitory concentration) turned out to be 59 nM; in [21] (Homo sapiens, MCF7, MCF-7 breast cancer cells, read-out: antitumor activity GI50 value: 50% growth inhibitory concentration), 52 nM; in assay [22] (Homo sapiens, HCT-116 colorectal cancer cells, read-out: antitumor activity GI50 value: 50% growth inhibitory concentration), 290 nM.

Values taken from US20240197726A1, “NOVEL TETRAHYDROISOQUINOLINE ALKALOID COMPOUND CONTAINING MACROCYCLE” (THE UNIVERSITY OF TOKYO, priority 2021, published 2024).
